Assay results published in patent publication US10899754B2, “Modulators of indoleamine 2,3-dioxygenase” (GLAXOSMITHKLINE INTELLECTUAL PROPERTY DEVELOPMENT LIMITED, priority 2016, dated 2021).

What was measured:
Format in all cases: cell-based
[1] = test system: human epithelial HeLa cells; assay: HeLa cytotoxicity assay (CellTiter-Glo); conditions: pCC50
Procedure, shortened: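 HeLa cells (5,000/well) stimulated with 10 nM IFN-γ, exposed to 11-point 3-fold compound dilutions for 2 days at 37 °C; viability by CellTiter-Glo ATP luminescence. Normalized to cell-free (100% cytotoxicity) and stimulated-cell DMSO (0%) controls; four-parameter fit gives pCC50.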

[2] = test system: human peripheral blood mononuclear cells (PBMC); assay: PBMC cytotoxicity assay (CellTiter-Glo); conditions: 2 days, pCC50
Procedure, shortened: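 Human PBMC (50,000 cells/well) stimulated with IFN-γ 100 ng/ml and LPS 50 ng/ml were exposed to 11-point 3-fold compound dilutions for 2 days at 37 °C, 5% CO2. Viability read by CellTiter-Glo ATP luminescence and normalized to no-cell and stimulated-DMSO controls. XC50 derived by four-parameter fit.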

[3] = molecular target: T1, indoleamine 2, 3-dioxygenase (IDO1) (Homo sapiens, UniProt P14902); assay: IDO1 PBMC RapidFire MS assay (kynurenine detection by mass spectrometry); parameters: to induce the expression of indoleamine 2, 3-dioxygenase (IDO1); host or cells: human PBMC stimulated with IFN-gamma and LPS; conditions: human PBMC stimulated with IFN-γ and LPS, 2 days, pIC50, read-out: PBMC PXC50 (converted)
Procedure, shortened: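 PBMCs (50,000 cells/well) stimulated with IFN-γ 100 ng/ml plus LPS 50 ng/ml, treated with 11-point 3-fold compound series for 2 days at 37° C. Supernatant kynurenine measured by RapidFire MS, normalised to internal standard; parallel cytotoxicity by CellTiter-Glo luminescence; curves fitted for XC50.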

[4] = molecular target: T1, indoleamine 2, 3-dioxygenase (IDO1); assay: IDO1 HeLa RapidFire MS assay (kynurenine detection by mass spectrometry); parameters: to induce the expression of indoleamine 2, 3-dioxygenase (IDO1); conditions: HeLa cells, pIC50, read-out: IDO1_HELA_PXC50 (converted)
Procedure, shortened: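 Compound potency reported as pIC50 from kynurenine/internal-standard ratio (RapidFire MS) in supernatant of IFN-γ-induced (10 nM) HeLa cells, 5,000 per well, after 2 days' treatment with 11-point dilutions. Cytotoxicity in the same format by luminescent ATP detection, reported as pCC50.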

T1 sequence (P14902 whole entry): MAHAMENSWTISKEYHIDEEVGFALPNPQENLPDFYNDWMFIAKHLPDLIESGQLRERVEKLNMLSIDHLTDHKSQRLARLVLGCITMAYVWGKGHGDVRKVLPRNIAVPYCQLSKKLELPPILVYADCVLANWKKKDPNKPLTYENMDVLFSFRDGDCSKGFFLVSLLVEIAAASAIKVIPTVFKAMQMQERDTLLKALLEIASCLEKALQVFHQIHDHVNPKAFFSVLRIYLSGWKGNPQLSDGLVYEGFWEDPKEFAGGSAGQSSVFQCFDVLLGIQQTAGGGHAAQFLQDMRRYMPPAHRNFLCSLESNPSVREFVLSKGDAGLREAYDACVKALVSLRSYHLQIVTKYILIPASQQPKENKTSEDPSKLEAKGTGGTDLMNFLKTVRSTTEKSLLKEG

| Compound | IC50 [3] | IC50 [4] | HELA_IDO1_TOX_PXC50 [1] | PBMC TOX PXC50 [2] |
| --- | --- | --- | --- | --- |
| CC(C)CN(c1ccc([C@H](C)CC(=O)O)cc1Nc1nc(C(F)(F)F)cs1)C1CCOCC1 [Example 22, (R)-3-(4-(Isobutyl(tetrahydro-2H-pyran-4-yl)amino)-3-((4-(trifluoromethyl)thiazol-2-yl)amino)phenyl)butanoic Acid] | 2.51 nM | 2.51 nM | <5 | <5 |
| CC(C)CN(c1ccc([C@H](C)CC(=O)O)cc1Nc1nc(C2CC2)ns1)C1CCOCC1 [Example 28, (R)-3-(3-((3-cyclopropyl-1,2,4-thiadiazol-5-yl)amino)-4-(isobutyl(tetrahydro-2H-pyran-4-yl)amino)phenyl)butanoic Acid] | 5.01 nM | 6.31 nM | <5 | <5 |
| COCc1ccc(Nc2cc([C@H](C)CC(=O)O)ccc2N(CC(C)C)C2CCOCC2)cn1 [Example 31, (R)-3-(4-(isobutyl(tetrahydro-2H-pyran-4-yl)amino)-3-((6-(methoxymethyl)pyridin-3-yl)amino)phenyl)butanoic Acid] | 10 nM | 20 nM | 5 | <5 |
| CC(C)CN(c1cc(F)c([C@H](C)CC(=O)O)cc1Nc1ccc(Cl)nc1)C1CCOCC1 [Example 37, (R)-3-(5-((6-chloropyridin-3-yl)amino)-2-fluoro-4-(isobutyl(tetrahydro-2H-pyran-4-yl)amino)phenyl)butanoic Acid] | 1.26 nM | 5.01 nM | <5 | <5 |
| CC[C@H](CC(=O)O)c1ccc(N(CC(C)C)C2CCCCC2)c(Nc2nc(C(F)(F)F)ns2)c1 [Example 38, (R)-3-(4-(cyclohexyl(isobutyl)amino)-3-((3-(trifluoromethyl)-1,2,4-thiadiazol-5-yl)amino)phenyl)pentanoic Acid] | 0.794 nM | 2 nM | <5 | <5 |

Continued, in another order:

| IC50 [3] | IC50 [4] | Compound | HELA_IDO1_TOX_PXC50 [1] | PBMC TOX PXC50 [2] |
| --- | --- | --- | --- | --- |
| 1 nM | 2.51 nM | CC[C@H](CC(=O)O)c1ccc(N(CC(C)C)CC(C)C)c(Nc2nc(C(F)(F)F)ns2)c1 [Example 39, (R)-3-(4-(diisobutylamino)-3-((3-(trifluoromethyl)-1,2,4-thiadiazol-yl)amino)phenyl)pentanoic Acid] | <5 | <5 |
| 2.51 nM | 12.6 nM | CC[C@H](CC(=O)O)c1ccc(N(CC(C)C)CC(C)C)c(Nc2nc(Cl)ns2)c1 [Example 40, (R)-3-(3-((3-chloro-1,2,4-thiadiazol-5-yl)amino)-4-(diisobutylmino)phenyl)pentanoic Acid] | <5 | <5 |
| 0.501 nM | 5.01 nM | CC[C@H](CC(=O)O)c1ccc(N(CC(C)C)C2CCCCC2)c(Nc2nc(Cl)ns2)c1 [Example 42] | <5 | <5 |
| 1.26 nM | 3.98 nM | CC(C)CN(c1ccc([C@H](C)CC(=O)O)cc1Nc1cnc(Cl)cn1)[C@H]1CC[C@H](O)CC1 [Example 45, (R)-3-(3-((5-chloropyrazin-2-yl)amino)-4-(((1r,4R)-4-hydroxycyclohexyl) (isobutyl)amino)phenyl)butanoic Acid] | <5 | <5 |
| 2 nM | 6.31 nM | CC(C)CN(c1ccc([C@H](C)CC(=O)O)cc1Nc1ccc(Cl)nc1)[C@H]1CC[C@H](O)CC1 [Example 49, (R)-3-(3-((6-chloropyridin-3-yl)amino)-4-(((1r,4R)-4-hydroxycyclohexyl) (isobutyl)amino)phenyl)butanoic Acid] | <5 | <5 |
| 5.01 nM | 7.94 nM | CC(C)CN(c1ccc([C@H](C)CC(=O)O)cc1Nc1ccc(Cl)nn1)[C@H]1CC[C@H](O)CC1 [Example 57, (R)-3-(3-((6-chloropyridazin-3-yl)amino)-4-(((1r,4R)-4-hydroxycyclohexyl) (isobutyl)amino)phenyl)butanoic Acid] | <5 | <5 |
